Reference: patent US9132203B2, “Complex and contrast agent for photoimaging using the same” (CANON KABUSHIKI KAISHA, priority 2010, dated 2015)

Legend:
[1] = tested on: cancer-bearing mouse having a cancer site in the left hindlimb; assay: In vivo kinetics by fluorescent imaging in cancer-bearing mouse; details: caudal vein dosing, ICG 0.5 mg/ml; FIG. 17A-C, 18A
Method: After the gelatin-ICG complex 1 was dosed from the caudal vein of a cancer-bearing mouse having a cancer site in the left hindlimb, images were taken over time with a fluorescent imaging apparatus (GE Healthcare), and in vivo kinetics of the gelatin-ICG complex 1 were evaluated.
Furthermore, as a comparative example, ICG alone at the same concentration (0.5 mg/ml) was intravenously dosed to a cancer-bearing mouse, and a similar evaluation was performed. Changes with time in the fluorescent imaging after dosing the gelatin-ICG complex 1 are illustrated in FIG. 17A. Changes with time after dosing ICG alone are illustrated in FIG. 17B. Changes with time in the fluorescence intensity in these cancer tissues are illustrated in FIG. 17C.
A gelatin-ICG complex 7 including a gelatin derivative 7 (DSPE 67% introduced) fluorescently labeled with Cy5.5 and ICG was prepared and dosed to a cancer-bearing mouse in the same manner as in Example 15 to evaluate in vivo kinetics of the gelatin derivative 7 itself. Changes with time in the fluorescent imaging are illustrated in FIG. 18A. Furthermore, ICG alone at the same concentration was dosed to a cancer-bearing mouse as a comparative example. Changes with time in the fluorescent imaging are illustrated in FIG. 18B.

[2] = Absorption spectrum / absorbance at 780 nm with a spectrophotometer; type: physicochemical; details: ICG 0.5 mg/mL, gelatin 40 mg/mL; FIG. 2, FIG. 5
Method: The absorption spectrum of the obtained gelatin-ICG complex 1 was measured with a spectrophotometer (Beckman Coulter, Inc.).
The absorption spectrum and the absorbance at 780 nm of the gelatin-ICG complex 1 are illustrated in FIGS. 2 and 3, respectively. The absorption spectrum and the absorbance at 780 nm of ICG are also illustrated in FIGS. 2 and 3, respectively, as a comparative example.
The gelatin-ICG complex 1, 3, 4, 5, or 6 (final concentration, 40 or 100 mg/mL) and an ICG solution (final concentration, 0.5 mg/mL) were mixed to obtain a gelatin-ICG complex.
The complexes and the mixtures were prepared at final concentrations of ICG and a gelatin of 0.5 mg/mL and 40 mg/mL, respectively.
An ICG solution (final concentration, 0.1 mg/mL) and a gelatin (weight-average molecular weight, 10,000; final concentration, 100 m g/mL) were mixed to obtain a mixture (gelatin-ICG mixture) of a gelatin and ICG. The absorption spectrum of the obtained gelatin-ICG mixture was measured with a spectrophotometer. The results are illustrated in FIG. 19.

[3] = Stability: absorption spectrum with time in PBS or PBS containing albumin at 37° C.; type: physicochemical
Method: To evaluate stability of the gelatin-ICG complex 1, the gelatin-ICG complex 1 was allowed to stand in PBS (phosphate buffered saline) or in PBS containing albumin (40 mg/mL) at 37° C., and the absorption spectrum was measured with time.

For `CC1(C)C(/C=C/C=C/C=C/C=C2/N(CCCCS(=O)(=O)[O-])c3ccc4ccccc4c3C2(C)C)=[N+](CCCCS(=O)(=O)[O-])c2ccc3ccccc3c21.[Na+]` [ICG, indocyanine green], the “distribution of ICG to cancer tissue, fluorescence with time” value [1] was “distributed to the cancer tissue temporarily after dosing ICG alone and eliminated with time”, the “absorption spectrum (associate around 700 nm, monomer around 780 nm)” value [2] was “absorbance on the long wavelength side was low” and the “changes with time in absorption spectrum / absorbance (λmax)” value ([3]; PBS containing albumin (40 mg/mL)) was “stability was slightly inferior as compared with the stability of the gelatin-ICG complex 1”. For the same molecule, the “changes with time in absorption spectrum / absorbance (λmax)” value ([3]; PBS without albumin) was “changed greatly with time”.
